Test results: patent US12448389B2, “BRM targeting compounds and associated methods of use” (Prelude Therapeutics Incorporated, priority 2020, dated 2025)

What was measured:
SMARCA2-HiBiT = molecular target: T1, SMARCA2-HiBiT (Homo sapiens, UniProt P51531); assay: SMARCA2 HiBiT degradation assay in HeLa cells; assay type: cell-based; details: 18 hours incubation; for DC50: read-out: HeLa_HiBit-SM2 DC50; for Dmax: HeLa, read-out: HeLa-HiBit-SM2 Dmax (%)
T1 construct: SMARCA2-HiBiT knock-in Hela monoclonal cell (CS302366); host or cells: HeLa monoclonal knock-in line (CRISPR HiBiT knock-in at the endogenous locus, heterozygous)
T1 sequence (P51531 whole entry): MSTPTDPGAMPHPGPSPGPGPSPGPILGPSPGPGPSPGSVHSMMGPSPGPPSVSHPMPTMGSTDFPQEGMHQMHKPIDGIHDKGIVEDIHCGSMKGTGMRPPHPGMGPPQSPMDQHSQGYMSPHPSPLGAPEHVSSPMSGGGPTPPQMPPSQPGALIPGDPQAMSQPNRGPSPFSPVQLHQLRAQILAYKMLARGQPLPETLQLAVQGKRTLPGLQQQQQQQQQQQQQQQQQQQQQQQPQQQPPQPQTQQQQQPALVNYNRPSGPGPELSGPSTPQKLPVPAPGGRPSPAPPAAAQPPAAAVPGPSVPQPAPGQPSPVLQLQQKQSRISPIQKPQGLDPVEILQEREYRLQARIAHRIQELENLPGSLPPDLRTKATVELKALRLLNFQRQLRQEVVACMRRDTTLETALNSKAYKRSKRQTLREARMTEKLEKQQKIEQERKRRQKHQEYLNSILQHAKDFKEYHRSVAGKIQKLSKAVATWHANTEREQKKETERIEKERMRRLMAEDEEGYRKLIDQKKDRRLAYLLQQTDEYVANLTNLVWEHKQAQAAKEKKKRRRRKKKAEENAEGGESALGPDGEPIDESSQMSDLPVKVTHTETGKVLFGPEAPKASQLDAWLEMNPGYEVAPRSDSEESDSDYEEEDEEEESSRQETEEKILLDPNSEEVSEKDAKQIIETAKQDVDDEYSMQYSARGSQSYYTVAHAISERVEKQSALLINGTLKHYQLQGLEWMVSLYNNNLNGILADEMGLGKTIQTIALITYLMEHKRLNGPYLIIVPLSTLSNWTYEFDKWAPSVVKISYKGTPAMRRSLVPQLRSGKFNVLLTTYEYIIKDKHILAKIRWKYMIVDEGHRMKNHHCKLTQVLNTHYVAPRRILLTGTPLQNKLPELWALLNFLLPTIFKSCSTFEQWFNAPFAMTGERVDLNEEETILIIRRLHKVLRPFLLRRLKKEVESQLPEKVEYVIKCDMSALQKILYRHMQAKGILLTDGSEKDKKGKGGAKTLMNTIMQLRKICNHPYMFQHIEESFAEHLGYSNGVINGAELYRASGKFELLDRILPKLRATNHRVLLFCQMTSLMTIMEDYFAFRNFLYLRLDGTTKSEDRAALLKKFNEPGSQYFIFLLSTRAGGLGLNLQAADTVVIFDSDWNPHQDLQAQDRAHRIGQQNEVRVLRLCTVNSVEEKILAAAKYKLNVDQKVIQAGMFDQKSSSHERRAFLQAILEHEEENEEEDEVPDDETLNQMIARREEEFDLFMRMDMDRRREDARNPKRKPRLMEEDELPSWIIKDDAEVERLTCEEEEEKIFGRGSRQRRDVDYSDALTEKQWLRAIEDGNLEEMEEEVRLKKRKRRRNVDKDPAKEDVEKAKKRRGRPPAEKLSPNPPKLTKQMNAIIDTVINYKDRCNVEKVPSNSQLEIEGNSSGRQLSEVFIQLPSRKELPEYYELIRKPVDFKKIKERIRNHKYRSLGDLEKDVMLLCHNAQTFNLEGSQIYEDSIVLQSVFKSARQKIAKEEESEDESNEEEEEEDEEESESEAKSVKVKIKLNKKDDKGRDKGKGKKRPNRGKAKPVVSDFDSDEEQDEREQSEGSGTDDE
Procedure, shortened: (§1)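 HeLa monoclonal lines with heterozygous HiBiT knock-in were seeded at 2500 cells/well in EMEM with 10% FBS and treated with compound for 18 h at 37 °C. Remaining tagged protein was measured by Nano-Glo HiBiT lytic luminescence after 30–60 min at RT, and values came from curve fitting.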

SMARCA4-HiBiT = molecular target: T2, SMARCA4-HiBiT (Homo sapiens, UniProt P51532); assay: SMARCA4 HiBiT degradation assay in HeLa cells; assay type: cell-based; details: 18 hours incubation; for DC50: read-out: HeLa-HiBit-SM4 DC50; for Dmax: HeLa, read-out: HeLa-HiBit-SM4 Dmax (%)
T2 construct: SMARCA4-HiBiT knock-in Hela monoclonal cell (CS3023226); host or cells: HeLa monoclonal knock-in line (CRISPR HiBiT knock-in at the endogenous locus, heterozygous)
T2 sequence (P51532 whole entry): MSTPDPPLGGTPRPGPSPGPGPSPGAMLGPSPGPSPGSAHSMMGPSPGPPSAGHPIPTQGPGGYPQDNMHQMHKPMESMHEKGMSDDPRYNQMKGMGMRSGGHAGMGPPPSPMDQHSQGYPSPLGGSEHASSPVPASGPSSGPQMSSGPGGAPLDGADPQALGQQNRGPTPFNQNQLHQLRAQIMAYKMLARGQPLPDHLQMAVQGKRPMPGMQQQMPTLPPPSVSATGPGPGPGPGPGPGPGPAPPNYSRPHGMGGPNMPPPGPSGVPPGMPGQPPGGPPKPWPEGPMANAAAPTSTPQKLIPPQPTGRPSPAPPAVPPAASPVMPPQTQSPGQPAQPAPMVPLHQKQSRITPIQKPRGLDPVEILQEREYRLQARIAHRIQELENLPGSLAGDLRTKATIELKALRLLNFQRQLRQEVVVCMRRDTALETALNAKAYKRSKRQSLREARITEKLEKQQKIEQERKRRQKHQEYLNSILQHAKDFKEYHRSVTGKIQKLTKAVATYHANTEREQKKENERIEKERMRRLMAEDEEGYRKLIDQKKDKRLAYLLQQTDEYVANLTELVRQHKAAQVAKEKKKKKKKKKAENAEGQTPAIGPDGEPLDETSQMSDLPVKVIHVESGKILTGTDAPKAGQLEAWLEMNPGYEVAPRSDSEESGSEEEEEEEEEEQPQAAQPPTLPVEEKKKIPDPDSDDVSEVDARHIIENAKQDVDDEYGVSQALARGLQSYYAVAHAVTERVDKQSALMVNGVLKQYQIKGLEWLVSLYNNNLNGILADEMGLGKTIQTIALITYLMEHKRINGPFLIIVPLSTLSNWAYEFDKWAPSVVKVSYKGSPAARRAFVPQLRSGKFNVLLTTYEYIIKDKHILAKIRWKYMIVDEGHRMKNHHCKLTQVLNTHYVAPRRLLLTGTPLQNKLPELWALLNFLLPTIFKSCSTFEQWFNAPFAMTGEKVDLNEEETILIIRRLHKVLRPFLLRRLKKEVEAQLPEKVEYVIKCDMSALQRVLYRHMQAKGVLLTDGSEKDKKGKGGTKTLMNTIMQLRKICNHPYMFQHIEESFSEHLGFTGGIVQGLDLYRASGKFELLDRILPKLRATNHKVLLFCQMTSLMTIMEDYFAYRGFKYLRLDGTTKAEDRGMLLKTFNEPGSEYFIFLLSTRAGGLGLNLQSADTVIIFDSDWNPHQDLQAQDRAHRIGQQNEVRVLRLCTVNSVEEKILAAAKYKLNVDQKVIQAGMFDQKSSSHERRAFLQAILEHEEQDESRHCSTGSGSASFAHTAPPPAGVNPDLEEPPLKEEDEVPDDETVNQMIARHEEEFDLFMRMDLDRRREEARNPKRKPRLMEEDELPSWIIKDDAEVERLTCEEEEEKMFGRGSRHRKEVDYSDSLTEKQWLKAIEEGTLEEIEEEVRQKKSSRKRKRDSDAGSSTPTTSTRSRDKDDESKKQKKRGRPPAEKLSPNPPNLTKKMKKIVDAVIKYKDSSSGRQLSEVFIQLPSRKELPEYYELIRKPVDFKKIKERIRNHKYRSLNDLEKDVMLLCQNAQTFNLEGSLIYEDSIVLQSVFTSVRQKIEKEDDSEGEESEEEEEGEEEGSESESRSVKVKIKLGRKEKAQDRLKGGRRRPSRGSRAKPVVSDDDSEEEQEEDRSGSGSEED
Procedure, shortened: as §1

## O=C1CCC(N2C(=O)c3ccc(N4CC[C@H](CN5C[C@@H]6[C@H](C5)[C@H]6CN5CCN6c7cc(-c8cc(F)ccc8O)nnc7NC[C@H]6C5)[C@@H](F)C4)cc3C2=O)C(=O)N1 (stereo partly drawn) [Example 277, 2-(2,6-dioxopiperidin-3-yl)-5-((3R,4R)-3-fluoro-4-(((1R,5S,6R)-6-(((S)-2-(5-fluoro-2-hydroxyphenyl)-5,6,6a,7,9,10-hexahydro-8H-pyrazino[1′,2′:4,5]pyrazino[2,3-c]pyridazin-8-yl)methyl)-3-azabicyclo[3.1.0]hexan-3-yl)methyl)piperidin-1-yl)isoindoline-1,3-dione]
SMARCA2-HiBiT
  DC50: < 10 nM
  Dmax: > 85%
SMARCA4-HiBiT
  HeLa-HiBit-SM4 Dmax (%): C (C=50%<Dmax<=75%)
  DC50: < 10 nM

## O=C1CCC(N2C(=O)c3ccc(N4CCC(CNC5CCC(CN6CCN7c8cc(-c9ccccc9O)nnc8NC[C@H]7C6)CC5)CC4)cc3C2=O)C(=O)N1 (stereo partly drawn) [Example 167, 2-(2,6-dioxopiperidin-3-yl)-5-[4-[[[4-[[(10S)-4-(2-hydroxyphenyl)-1,5,6,8,12-pentazatricyclo[8.4.0.02,7]tetradeca-2,4,6-trien-12-yl]methyl]cyclohexyl]amino]methyl]piperidin-1-yl] isoindole-1,3-dione]
SMARCA2-HiBiT
  DC50: < 10 nM
  Dmax: > 85%
SMARCA4-HiBiT
  DC50: < 10 nM
  Dmax: > 85%

## C[C@H]1CN(CC2CCN(c3ccc4c(c3)C(=O)N(C3CCC(=O)NC3=O)C4=O)CC2)CCN1C(=O)N1CCN2c3cc(-c4ccccc4O)nnc3NC[C@H]2C1 (stereo partly drawn) [Example 116, 2-(2,6-dioxopiperidin-3-yl)-5-(4-(((S)-4-((S)-2-(2-hydroxyphenyl)-6,6a,7,8,9,10-hexahydro-5H-pyrazino[1′,2′:4,5]pyrazino[2,3-c]pyridazine-8-carbonyl)-3-methyl-piperazin-1-yl)methyl)piperidin-1-yl)isoindoline-1,3-dione]
SMARCA2-HiBiT
  DC50: < 10 nM
  Dmax: 75 to 85%
SMARCA4-HiBiT
  DC50: < 10 nM
  Dmax: 50 to 75%

## O=C1CCC(N2C(=O)c3ccc(N4CCC(O)(CN5C[C@@H]6[C@@H](CN7CCN8c9cc(-c%10ccccc%10O)nnc9NC[C@H]8C7)[C@@H]6C5)CC4)cc3C2=O)C(=O)N1 (stereo partly drawn) [Example 47, 2-(2,6-dioxopiperidin-3-yl)-5-(4-hydroxy-4-(((1R,5S,6s)-6-(((S)-2-(2-hydroxyphenyl)-5,6,6a,7,9,10-hexahydro-811-pyrazino[1′,2′:4,5]pyrazino[2,3-c]pyridazin-8-yl)methyl)-3-azabicyclo[3.1.0]hexan-3-yl)methyl)piperidin-1-yl) isoindoline-1,3-dione]
SMARCA2-HiBiT
  DC50: < 10 nM
  Dmax: > 85%
SMARCA4-HiBiT
  DC50: < 10 nM
  Dmax: 50 to 75%

## O=C1CCC(N2C(=O)c3ccc(N4CCC(CN5C[C@@H]6[C@H](C5)[C@H]6CN5CCN6c7cc(-c8ccccc8O)nnc7NC[C@H]6C5)[C@@H](F)C4)cc3C2=O)C(=O)N1 (stereo in doubt) [Example 192, 2-(2,6-dioxopiperidin-3-yl)-5-[(3R,4R)-3-fluoro-4-[[(1S,5R)-6-[[(10S)-4-(2-hydroxyphenyl)-1,5,6,8,12-pentazatricyclo[8.4.0.02,7]tetradeca-2(7),3,5-trien-12-yl]methyl]-3-azabicyclo[3.1.0]hexan-3-yl]methyl]piperidin-1-yl]isoindole-1,3-dione]
SMARCA2-HiBiT
  DC50: < 10 nM
  Dmax: 50 to 75%
SMARCA4-HiBiT
  DC50: < 10 nM
  Dmax: ≤ 50%

## CN(CC1CCN(CC2CCN(c3ccc4c(c3)C(=O)N(C3CCC(=O)NC3=O)C4=O)CC2)CC1)C1CCN2c3cc(-c4ccccc4O)nnc3NCC2C1 (stereo not drawn) [Example 254, 2-(2,6-dioxopiperidin-3-yl)-5-(4-((4-(((2-(2-hydroxy-phenyl)-6,6a,7,8,9,10-hexahydro-5H-pyrido[1′,2′:4,5]pyrazino[2,3-c]pyridazin-8-yl)(methyl)amino)methyl)piperidin-1-yl)methyl)piperidin-1-yl)isoindoline-1,3-dione]
SMARCA2-HiBiT
  DC50: < 10 nM
  Dmax: 50 to 75%
SMARCA4-HiBiT
  DC50: 10 to 100 nM
  Dmax: 75 to 85%

## O=C1CCC(N2C(=O)c3ccc(N4CC[C@H](CN5C[C@@H]6[C@H](C5)[C@H]6CN5CCN6c7cc(-c8ccccc8O)nnc7NC[C@H]6C5)[C@H](F)C4)cc3C2=O)C(=O)N1 (stereo partly drawn) [Example 186, 2-(2,6-dioxopiperidin-3-yl)-5-[(3S,4R)-3-fluoro-4-[[(1S,5R)-6-[[(10S)-4-(2-hydroxyphenyl)-1,5,6,8,12-pentazatricyclo[8.4.0.02,7]tetradeca-2(7),3,5-trien-12-yl]methyl]-3-azabicyclo[3.1.0]hexan-3-yl]methyl]piperidin-1-yl]isoindole-1,3-dione]
SMARCA2-HiBiT
  DC50: < 10 nM
  Dmax: 75 to 85%
SMARCA4-HiBiT
  DC50: < 10 nM
  Dmax: 50 to 75%

## CC1(CN2C[C@@H]3[C@@H](CN4CCN5c6cc(-c7ccccc7O)nnc6NC[C@H]5C4)[C@@H]3C2)CCN(c2ccc3c(c2)C(=O)N(C2CCC(=O)NC2=O)C3=O)CC1 (stereo partly drawn) [Example 91, 2-(2,6-dioxopiperidin-3-yl)-5-(4-(((1R,5S,6r)-6-(((S)-2-(2-hydroxyphenyl)-5,6,6a,7,9,10-hexahydro-8H-pyrazino[1′,2′:4,5]pyrazino[2,3-c]pyridazin-8-yl)methyl)-3-azabicyclo[3.1.0]hexan-3-yl)methyl)-4-methylpiperidin-1-yl)isoindoline-1,3-dione]
SMARCA2-HiBiT
  DC50: < 10 nM
  Dmax: > 85%
SMARCA4-HiBiT
  DC50: 10 to 100 nM
  Dmax: 50 to 75%

## O=C1CCC(N2Cc3ccc(N4CCC(CN5CCN(C(=O)N6CCN7c8cc(-c9ccccc9O)nnc8NC[C@H]7C6)CC5C(F)(F)F)CC4)cc3C2=O)C(=O)N1 (stereo partly drawn) [Example 102, 3-(6-(4-((4-((S)-2-(2-hydroxyphenyl)-6,6a,7,8,9,10-hexahydro-5H-pyrazino[1′,2′:4,5]pyrazino[2,3-c]pyridazine-8-carbonyl)-2-(trifluoromethyl)piperazin-1-yl)methyl)piperidin-1-yl)-1-oxoisoindolin-2-yl)piperidine-2,6-dione]
SMARCA2-HiBiT
  DC50: < 10 nM
  Dmax: > 85%
SMARCA4-HiBiT
  DC50: < 10 nM
  Dmax: 75 to 85%

## CC1(CN2CCC(CN3CCN4c5cc(-c6ccccc6O)nnc5NC[C@H]4C3)CC2)CCN(c2ccc3c(c2)C(=O)N(C2CCC(=O)NC2=O)C3=O)CC1 (stereo partly drawn) [Example 226, 2-(2,6-dioxopiperidin-3-yl)-5-(4-((4-(((S)-2-(2-hydroxyphenyl)-5,6,6a,7,9,10-hexahydro-8H-pyrazino[1′,2′:4,5]pyrazino[2,3-c]pyridazin-8-yl)methyl)piperidin-1-yl)methyl)-4-methylpiperidin-1-yl)isoindoline-1,3-dione]
SMARCA2-HiBiT
  DC50: < 10 nM
  Dmax: > 85%
SMARCA4-HiBiT
  DC50: < 10 nM
  Dmax: 75 to 85%

## O=C1CCC(N2Cc3cc(N4CCO[C@@H](CN5C[C@@H]6[C@H](C5)[C@H]6CN5CCN6c7cc(-c8ccccc8O)nnc7NC[C@H]6C5)C4)ccc3C2=O)C(=O)N1 (stereo partly drawn) [Example 267, 3-(5-((S)-2-(((1R,5S,6R)-6-(((S)-2-(2-hydroxyphenyl)-5,6,6a,7,9,10-hexahydro-8H-pyrazino[1′,2′:4,5]pyrazino[2,3-c]pyridazin-8-yl)methyl)-3-azabicyclo[3.1.0]hexan-3-yl)methyl)morpholino)-1-oxoisoindolin-2-yl)piperidine-2,6-dione]
SMARCA2-HiBiT
  DC50: < 10 nM
  Dmax: > 85%
SMARCA4-HiBiT
  DC50: < 10 nM
  Dmax: 75 to 85%

## CCC1CN(CC2CCN(c3ccc4c(c3)C(=O)N(C3CCC(=O)NC3=O)C4)CC2)CCN1C(=O)N1CCN2c3cc(-c4ccccc4O)nnc3NC[C@H]2C1 (stereo partly drawn) [Example 270, 3-(6-(4-((3-ethyl-4-((S)-2-(2-hydroxyphenyl)-6,6a,7,8,9,10-hexahydro-5H-pyrazino[1′,2′:4,5]pyrazino[2,3-c]pyridazine-8-carbonyl)piperazin-1-yl)methyl)piperidin-1-yl)-1-oxoisoindolin-2-yl)piperidine-2,6-dione]
SMARCA2-HiBiT
  DC50: < 10 nM
  Dmax: > 85%
SMARCA4-HiBiT
  DC50: < 10 nM
  Dmax: > 85%

## O=C1CCC(N2C(=O)c3cc(F)c(N4CCC(CN5CC6CCC(C5)C6CN5CCN6c7cc(-c8ccccc8O)nnc7NC[C@H]6C5)CC4)cc3C2=O)C(=O)N1 (stereo partly drawn) [Example 169, 2-(2,6-dioxopiperidin-3-yl)-5-fluoro-6-[4-[[8-[[(10S)-4-(2-hydroxyphenyl)-1,5,6,8,12-pentazatricyclo[8.4.0.02,7]tetradeca-2,4,6-trien-12-yl]methyl]-3-azabicyclo[3.2.1]octan-3-yl]methyl]piperidin-1-yl]isoindole-1,3-dione]
SMARCA2-HiBiT
  DC50: < 10 nM
  Dmax: 75 to 85%
SMARCA4-HiBiT
  DC50: 10 to 100 nM
  Dmax: 75 to 85%

## O=C1CCC(N2Cc3ccc(N4CCN(CCCN5CCC(CN6CCN7c8cc(-c9ccccc9O)nnc8NC[C@H]7C6)CC5)CC4)cc3C2=O)C(=O)N1 (stereo partly drawn) [Example 121, 3-(6-(4-(3-(4-(((S)-2-(2-hydroxyphenyl)-5,6,6a,7,9,10-hexahydro-8H-pyrazino[1′,2′:4,5]pyrazino[2,3-c]pyridazin-8-yl)methyl)piperidin-1-yl)propyl)piperazin-1-yl)-1-oxoisoindolin-2-yl)piperidine-2,6-dione]
SMARCA2-HiBiT
  DC50: < 10 nM
  Dmax: > 85%
SMARCA4-HiBiT
  DC50: 10 to 100 nM
  Dmax: 75 to 85%

## O=C1CCC(N2C(=O)c3ccc(N4CCO[C@@H](CN5C[C@@H]6[C@H](C5)[C@H]6CN5CCN6c7cc(-c8ccccc8O)nnc7NC[C@H]6C5)C4)cc3C2=O)C(=O)N1 (stereo partly drawn) [Example 51, 2-(2,6-dioxopiperidin-3-yl)-5-((S)-2-(((1R,5S,6R)-6-(((S)-2-(2-hydroxyphenyl)-5,6,6a,7,9,10-hexahydro-8H-pyrazino[1′,2′:4,5]pyrazino[2,3-c]pyridazin-8-yl)methyl)-3-azabicyclo[3.1.0]hexan-3-yl)methyl)morpholino)isoindoline-1,3-dione]
SMARCA2-HiBiT
  DC50: < 10 nM
  Dmax: > 85%
SMARCA4-HiBiT
  DC50: < 10 nM
  Dmax: 50 to 75%
